Source: US20110039762A1, “TARGETED ANTIMICROBIAL MOIETIES” (C3 JIAN, INC., priority 2009, published 2011)
Entries after “also recorded” stand apart in the source; their conditions may differ.

What was measured:
[1] = test system: S. epidermidis; test: Kill or inhibit growth/proliferation; morphology, biofilm and growth disruption (Tables 5, 6); assay type: cell-based, Staphylococcus epidermidis; set-up: key: A: Peptide aggregates; B: Less hyphal formation; Clumps; Diffuse clumps and small polyps; F: Diffuse growth; H: Thin; I: Growth inhibition; Microcolony formation; Rippled; Small polyps; Thick; W: Halo formation on top, microlonies on bottom; note: test concentration or dose not given here
[2] = test system: B. subtilis; test: as above; assay type: cell-based, Bacillus subtilis; set-up: key: A: Peptide aggregates; B: Less hyphal formation; Clumps; Diffuse clumps and small polyps; F: Diffuse growth; H: Thin; I: Growth inhibition; Microcolony formation; Rippled; Small polyps; Thick; W: Halo formation on top, microlonies on bottom; note: test concentration or dose not given here
[3] = test system: C. jejuni; test: as above; assay type: cell-based, Campylobacter jejuni; set-up: key: A: Peptide aggregates; B: Less hyphal formation; Clumps; Diffuse clumps and small polyps; F: Diffuse growth; H: Thin; I: Growth inhibition; Microcolony formation; Rippled; Small polyps; Thick; W: Halo formation on top, microlonies on bottom; note: test concentration or dose not given here
[4] = test system: microorganisms (e.g., bacteria, yeasts, fungi); test: Targeting peptide binding to target microorganisms (Table 3); conditions: preferably 1x PBS; for Target(s) (microorganisms bound by the targeting peptide): peptide binding in aqueous buffers varied by peptide solubility
[5] = test system: S. pneumoniae; test: Kill or inhibit growth/proliferation; morphology, biofilm and growth disruption (Tables 5, 6); assay type: cell-based, Streptococcus pneumoniae; set-up: key: A: Peptide aggregates; B: Less hyphal formation; Clumps; Diffuse clumps and small polyps; F: Diffuse growth; H: Thin; I: Growth inhibition; Microcolony formation; Rippled; Small polyps; Thick; W: Halo formation on top, microlonies on bottom; note: test concentration or dose not given here
[6] = test system: microorganisms; test: Peptides having multiple activities (targeting/binding, antimicrobial, growth or phenotype altering)
Excerpt: In certain embodiments, peptides described herein can have multiple activities. Thus for example, a peptide can have both binding/targeting activity and antimicrobial activity. Such peptides can be used, e.g., in a chimeric construct, for any or all of these properties. Thus, for example, a peptide designated “B” in Table 8 can be used as a targeting peptide. If it is also designated G or M it can also be used for antimicrobial activity.

[7] = test system: MRSA; test: Kill or inhibit growth/proliferation; morphology, biofilm and growth disruption (Tables 5, 6); assay type: cell-based, Methicillin-resistant Staphylococcus aureus; set-up: key: A: Peptide aggregates; B: Less hyphal formation; Clumps; Diffuse clumps and small polyps; F: Diffuse growth; H: Thin; I: Growth inhibition; Microcolony formation; Rippled; Small polyps; Thick; W: Halo formation on top, microlonies on bottom; note: test concentration or dose not given here
[8] = test system: C. jeikeium; test: as above; assay type: cell-based, Corynebacterium jeikeium; set-up: key: A: Peptide aggregates; B: Less hyphal formation; Clumps; Diffuse clumps and small polyps; F: Diffuse growth; H: Thin; I: Growth inhibition; Microcolony formation; Rippled; Small polyps; Thick; W: Halo formation on top, microlonies on bottom; note: test concentration or dose not given here
[9] = test system: M. luteus; test: as above; assay type: cell-based, Micrococcus luteus; set-up: key: A: Peptide aggregates; B: Less hyphal formation; Clumps; Diffuse clumps and small polyps; F: Diffuse growth; H: Thin; I: Growth inhibition; Microcolony formation; Rippled; Small polyps; Thick; W: Halo formation on top, microlonies on bottom; note: test concentration or dose not given here
[10] = test system: E. faecalis; test: as above; assay type: cell-based, Enterococcus faecalis; set-up: key: A: Peptide aggregates; B: Less hyphal formation; Clumps; Diffuse clumps and small polyps; F: Diffuse growth; H: Thin; I: Growth inhibition; Microcolony formation; Rippled; Small polyps; Thick; W: Halo formation on top, microlonies on bottom; note: test concentration or dose not given here
[11] = test system: C. albicans; test: as above; assay type: cell-based, Candida albicans; set-up: key: A: Peptide aggregates; B: Less hyphal formation; Clumps; Diffuse clumps and small polyps; F: Diffuse growth; H: Thin; I: Growth inhibition; Microcolony formation; Rippled; Small polyps; Thick; W: Halo formation on top, microlonies on bottom; note: test concentration or dose not given here
[12] = microorganism(s) the targeting peptide binds, peptide binding conducted in aqueous buffers varied by peptide solubility

Substance | Organism, effect [1] | Organism, effect [2] | Organism, effect [3] | Organism, effect [5] | Activities [6] | Organism, effect [7] | Organism, effect [8] | Organism, effect [9] | Target(s) [4, 12] | Target(s) (microorganisms bound by the targeting peptide) [4] | further results
PF-061: peptide having multiple activities (chain 1 GYNSYKAVQDVKTHSEEQRVTAKK; chain 2 GYNSYKAVQDVKTHSEEQRVTAKK; Peptide with targeting and/or antimicrobial activity) | S. epidermidis (R) | B. subtilis (R) | C. jejuni (R) | S. pneumoniae (R) | G B |  |  |  |  |  | Target(s) ([4]; microorganism the targeting peptide binds, binding in aqueous buffers varied by peptide solubility): S. epidermidis; also recorded: S. pneumoniae
PF-145: peptide having multiple activities (GIVLTGRAGLVSGACSMALGVGLG; Peptide with targeting and/or antimicrobial activity) | S. epidermidis (D) | B. subtilis (C) | C. jejuni (R) | S. pneumoniae (R) | G B | MRSA (M) | C. jeikeium (R) | M. luteus (A) |  |  | 
PF-171: peptide having multiple activities (TQVTLCRTW; Peptide with targeting and/or antimicrobial activity) | S. epidermidis (R) | B. subtilis (D) | C. jejuni (R) | S. pneumoniae (D) | G B | MRSA (M) |  | M. luteus (R) |  |  | Target(s) ([4]; microorganism(s) the targeting peptide binds, binding in aqueous buffers depending on peptide solubility): S. epidermidis; also recorded: E. coli; also recorded: P. aeruginosa; also recorded: S. pneumoniae
PF-548: peptide having multiple activities (chain 1 ARPIADLIHFNSTTVTASGDVYYGPG; chain 2 ARPIADLIHFNSTTVTASGDVYYGPG; Peptide with targeting and/or antimicrobial activity) | S. epidermidis (M) | B. subtilis (C) | C. jejuni (D) | S. pneumoniae (D) | G B | MRSA (M) | C. jeikeium (R) | M. luteus (A) |  |  | 
PF-553: peptide having multiple activities (chain 1 LTIVGNALQQKNQKLLLNQKKITSLG; chain 2 LTIVGNALQQKNQKLLLNQKKITSLG; Peptide with targeting and/or antimicrobial activity) |  | B. subtilis (D) |  | S. pneumoniae (R) | G B | MRSA (M) | C. jeikeium (R) |  | S. epidermidis and E. coli and P. aeruginosa and C. albicans and MRSA and S. pneumoniae and C. jeikeium |  | 
PF-556: peptide having multiple activities (chain 1 SLQIRMNTLTAAKASIEAA; chain 2 SLQIRMNTLTAAKASIEAA; Peptide with targeting and/or antimicrobial activity) | S. epidermidis (A) | B. subtilis (C) | C. jejuni (R) | S. pneumoniae (D) | G B | MRSA (M) | C. jeikeium (D) | M. luteus (A) |  |  | Organism, effect [10]: E. faecalis (A)
PF-558: peptide having multiple activities (chain 1 ADAPPPLIVRYS; chain 2 ADAPPPLIVRYS; Peptide with targeting and/or antimicrobial activity) | S. epidermidis (M) | B. subtilis (D) | C. jejuni (H) | S. pneumoniae (R) | G B | MRSA (C) |  |  | S. epidermidis; also recorded: E. coli; also recorded: C. albicans; also recorded: C. jeikeium; also recorded: C. jejuni |  | 
PF-560: peptide having multiple activities (chain 1 FGNPFRGFTLAMEADFKKRK; chain 2 FGNPFRGFTLAMEADFKKRK; Peptide with targeting and/or antimicrobial activity) |  | B. subtilis (D) | C. jejuni (A) | S. pneumoniae (R) | G B | MRSA (C) |  |  | S. epidermidis; also recorded: M. luteus; also recorded: E. coli; also recorded: S. pneumoniae; also recorded: C. jeikeium; also recorded: C. jejuni |  | 
PF-564: peptide having multiple activities (chain 1 TIILNDQINSLQERLNKLNAETDRR; chain 2 TIILNDQINSLQERLNKLNAETDRR; Peptide with targeting and/or antimicrobial activity) |  | B. subtilis (D) | C. jejuni (R) |  | G B | MRSA (C) | C. jeikeium (R) |  | S. epidermidis; also recorded: C. albicans; also recorded: S. pneumoniae; also recorded: C. jeikeium |  | 
PF-566: peptide having multiple activities (chain 1 EAQQVTQQLGADFNAITTPTATKV; chain 2 EAQQVTQQLGADFNAITTPTATKV; Peptide with targeting and/or antimicrobial activity) |  | B. subtilis (C) | C. jejuni (D) | S. pneumoniae (D) | G B | MRSA (M) | C. jeikeium (C) | M. luteus (D) | P. mirabilis; also recorded: S. pneumoniae |  | 
PF-645 (chain 1 SNSVQQG; chain 2 SNSVQQG; Peptide with targeting and/or antimicrobial activity) |  |  |  | S. pneumoniae (I) |  |  |  |  |  | Mycobacteria spp | Organism, effect [11]: C. albicans (B)
PF-646 (chain 1 APASPGRRPG; chain 2 APASPGRRPG; Peptide with targeting and/or antimicrobial activity) |  |  |  |  |  |  |  |  |  | Mycobacteria spp | Organism, effect (morphology, biofilm and growth disruption) [5]: S. pneumoniae (H); Organism, effect [11]: C. albicans (B)
PF-647 (chain 1 GTFLGQKCAAATAS; chain 2 GTFLGQKCAAATAS; Peptide with targeting and/or antimicrobial activity) |  |  |  |  |  |  |  |  |  | Mycobacteria spp | Organism, effect (morphology, biofilm and growth disruption) [5]: S. pneumoniae (R); Organism, effect (morphology, biofilm and growth disruption) [11]: C. albicans (B)
PF-654 (chain 1 LSGRLAGRR; chain 2 LSGRLAGRR; Peptide with targeting and/or antimicrobial activity) |  |  |  |  |  |  |  |  |  | Mycobacteria spp | Organism, effect (morphology, biofilm and growth disruption) [5]: S. pneumoniae (A); Organism, effect (morphology, biofilm and growth disruption) [7]: MRSA (R); Organism, effect (morphology, biofilm and growth disruption) [11]: C. albicans (B)
PF-697 (chain 1 RADARAK; chain 2 RADARAK; Peptide with targeting and/or antimicrobial activity) |  |  |  |  |  |  |  |  |  | Mycobacteria spp | Organism, effect (morphology, biofilm and growth disruption) [5]: S. pneumoniae (H); Organism, effect (morphology, biofilm and growth disruption) [11]: C. albicans (H)
